The values below come from patent US20210322412A1, “METHODS AND COMPOSITIONS FOR TREATING A CORONAVIRUS INFECTION” (priority 2020, published 2021).

In one data set the target is human CCR5 receptors (Homo sapiens, UniProt P51681). Put plainly: CCR5 inhibitory activity. Format: binding. The following applies: Receptor CCR5. On the procedure: (§1) The CCR2 and CCR5 inhibitory activity of (4-((3R,4R)-3-methoxytetrahydro-pyran-4-ylamino)piperidin-1-yl)(5-methyl-6-(((2R,6S)-6-(p-tolyl)tetrahydro-2H-pyran-2-yl)methylamino)pyrimidin-4-yl)methanone citrate was evaluated against human CCR2 receptors and human CCR5 receptors.

Another data set concerns the target human CCR2 receptors (Homo sapiens, UniProt P41597). Description: CCR2 inhibitory activity. Format: binding. The following applies: Receptor CCR2. On the procedure:
as §1

Data set [1] is described as follows: Sorption behavior (dynamic vapour sorption isotherms). Format: physicochemical. The protocol: Sorption isotherms were generated using an IGAsorp water sorption monitor from Hiden Isochema. Adsorption and desorption isotherms were obtained at 25° C. with 10% r.h. step intervals ranging from 10% r.h. to 90% r.h.
For BR salt form only: Sorption isotherms were registered on a DVS-1 water sorption monitor from Surface Measurement Systems.

Chain of human CCR2 receptors (P41597 whole entry): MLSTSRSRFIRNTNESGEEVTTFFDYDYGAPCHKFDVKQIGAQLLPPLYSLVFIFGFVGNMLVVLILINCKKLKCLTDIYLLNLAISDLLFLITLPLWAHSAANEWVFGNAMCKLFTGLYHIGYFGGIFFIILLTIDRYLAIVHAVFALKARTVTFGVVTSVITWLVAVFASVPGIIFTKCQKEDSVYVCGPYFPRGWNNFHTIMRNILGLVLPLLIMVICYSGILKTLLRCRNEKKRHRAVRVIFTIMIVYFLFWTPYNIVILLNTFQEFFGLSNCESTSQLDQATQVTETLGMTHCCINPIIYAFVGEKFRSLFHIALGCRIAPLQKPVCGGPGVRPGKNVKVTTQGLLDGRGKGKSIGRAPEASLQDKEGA
Chain of human CCR5 receptors (P51681 whole entry): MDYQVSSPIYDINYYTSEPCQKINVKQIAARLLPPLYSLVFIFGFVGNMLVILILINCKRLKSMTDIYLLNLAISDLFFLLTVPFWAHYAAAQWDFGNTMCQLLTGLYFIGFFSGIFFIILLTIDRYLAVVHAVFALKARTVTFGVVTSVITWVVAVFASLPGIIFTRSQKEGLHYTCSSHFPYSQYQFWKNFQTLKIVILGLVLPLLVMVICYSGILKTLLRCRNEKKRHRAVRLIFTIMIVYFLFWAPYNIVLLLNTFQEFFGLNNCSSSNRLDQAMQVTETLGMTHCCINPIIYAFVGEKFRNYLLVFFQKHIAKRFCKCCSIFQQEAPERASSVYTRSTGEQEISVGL

On human CCR5 receptors, `CO[C@H]1COCC[C@H]1NC1CCN(C(=O)c2ncnc(NC[C@H]3CCC[C@@H](c4ccc(C)cc4)O3)c2C)CC1.O=C(O)CC(O)(CC(=O)O)C(=O)O` [Compound 1, (4-((3R,4R)-3-Methoxytetrahydro-pyran-4-ylamino)piperidin-1-yl)(5-methyl-6-(((2R,6S)-6-(p-tolyl)tetrahydro-2H-pyran-2-yl)methylamino)pyrimidin-4-yl)methanone citrate] yielded a concentration for half-maximal inhibition (IC50) of 88 nM and an inhibition constant (Ki) of 75 nM. On human CCR2 receptors, this compound returned an IC50 of 50 nM and an inhibitory constant (Ki) of 4.2 nM. Moreover, in data set [1] (after the sorption experiment), the “state of the compound after the sorption experiment” value is listed as “still remains as solid material”. Besides, the “stability against relative humidity” value in data set [1] (relative humidity, 25° C.) is on record as “up to 80%”. For the same compound, the uptake of water in data set [1] (sorption experiment, relative humidity up to 80%, uptake reversible) is given as 2.6%.

Broadly, the IC50 is the concentration at which inhibition is half-maximal. A higher IC50 goes with weaker potency. Usually Ki stands for the equilibrium dissociation constant of an inhibitor or competing ligand from its target.
